# Biological target: T1, recombinant MaltOBP1 (Monochamus alternatus, UniProt A6YIT8)
# Assay: 1-NPN fluorescence binding assay (Scatchard)
# Conditions: fluorescent probe titration, Scatchard linearization; read-out: dissociation constant of MaltOBP1/1-NPN
# Procedure: (§1) Ligand-binding assays were performed on a HORIBA FluoroMax®-4 Fluorescence spectrophotometer (HORIBA Scientific, United States) with a 1 cm light path quartz cuvette and 5 nm slits for both excitation and emission. The purified MaltOBP1 protein, served in the 1 cm light path quartz cuvette, was titrated with 1 nM 1-N-phenyl naphtylamine (1-NPN, Sigma, Riedstr, Steinheim, Germany) solution in methanol. The fluorescence intensity at the maximum emission wavelength of about 337 nm was linearized using the Scatchard equation ([Sideris et al., 1992]), and then binding affinity for MaltOBP1/1-NPN was calculated.
# T1 sequence (A6YIT8 entry or part of it): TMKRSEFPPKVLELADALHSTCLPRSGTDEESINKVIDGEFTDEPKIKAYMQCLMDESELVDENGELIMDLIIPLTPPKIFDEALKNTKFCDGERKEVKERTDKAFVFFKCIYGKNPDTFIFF
row,Compound,Kd
1,"c1ccc(Nc2cccc3ccccc23)cc1 [1-NPN, 1-N-phenyl naphtylamine]",3.86 µM

# Biological target: T1, recombinant MaltOBP1
# Assay: Competitive ligand-binding assay (1-NPN displacement)
# Conditions: not given
# Procedure: as §1
# To assess the binding affinities of ligands to MaltOBP1, a mixture of 1-NPN and MaltOBP1 protein was titrated with 1 μM of each ligand dissolved in methanol. IC50 was obtained by data linearization, and the dissociation constant (Ki) was calculated following the equation: Ki = [IC50]/(1 + [1-NPN]/K1–NPN), where [1-NPN] is the free concentration of 1-NPN and K1–NPN is the dissociation constant of the protein/1-NPN complex ([Campanacci et al., 2001]), which was calculated from the binding curve using GraphPad Prism 5.01 (GraphPad Software, Inc.).
row,Compound,IC50
1,C=C1CC/C=C(\C)CC[C@@H]2[C@@H]1CC2(C)C [(−)-trans-caryophyllene],7.01 µM
2,C=C1CCC2CC1C2(C)C (stereo not drawn) [β- Pinene],39.3 µM

# Same assay, conditions: Ki = [IC50]/(1 + [1-NPN]/K1-NPN); read-out: Ki (dissociation constant)
row,Compound,Ki
1,C=C(C)[C@H]1CC=C(C)CC1 [(R)-(+)-limonene],12.8 µM
2,CC1=CC(=O)[C@H]2C[C@@H]1C2(C)C [(−) -verbenone],37.4 µM
3,(+)-α-Pinene,18.7 µM

# Same assay, conditions: competitive displacement of 1-NPN from MaltOBP1; ligands in methanol; read-out: IC50
row,Compound,IC50
1,C=C(C)[C@H]1CC=C(C)CC1 [(R)-(+)-limonene],21.7 µM
2,CC1=CC(=O)[C@H]2C[C@@H]1C2(C)C [(−) -verbenone],63.1 µM
3,(+)-α-Pinene,31.5 µM

# Same assay, conditions: fluorescence competitive binding
row,Compound,binding affinity to MaltOBP1 (in words)
1,"CC1=CCC2C(C1)C2(C)C (single isomer, unassigned; (+)) [(+)-3-carene]",no binding affinity
2,C=C(C)[C@H]1CC=C(C)CC1 [(R)-(+)-limonene],high binding affinity
3,CC1=CC(=O)[C@H]2C[C@@H]1C2(C)C [(−) -verbenone],high binding affinity
4,C=C1CC/C=C(\C)CC[C@@H]2[C@@H]1CC2(C)C [(−)-trans-caryophyllene],high binding affinity
5,"C=C1[C@H]2CC[C@H](C2)C1(C)C [comphene, Comphene]",no binding affinity
6,C=CC(=C)CCC=C(C)C [myrcene],no binding affinity
7,C=C1CCC2CC1C2(C)C (stereo not drawn) [β- Pinene],high binding affinity
8,(+)-α-Pinene,high binding affinity
